From patent US12459951B2, “Compounds that interact with RAS superfamily proteins for treatment of cancers, inflammatory diseases, rasopathies, and fibrotic disease” (SHY Therapeutics, LLC, priority 2022, dated 2025)

Tests used:
[1] = system: KRas wild type; test: Ras GTP Binding Domain Inhibition Assay (Ras Superfamily Assay); settings: 20 μM compound; for KRas wild type + SOS: % inh.: with SOS; for KRas wild type: % inh.: without SOS
Summary of the method: (§1)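 Binding of 100 nM fluorescent GTP (Cy3 or Cy5, 45 min, room temperature) was read after washes from plate-captured His-tagged protein. Beforehand, compounds at 20 μM or in dilution series for IC50 sat 3 h on the protein in Tris buffer pH 7.4 or 7.0 with 1% DMSO, Sos GEF optionally added for the last hour.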

[2] = system: KRas G12D mutant; test: as above; settings: 20 μM compound; for KRas G12D mutant + SOS: % inh.: with SOS; for KRas G12D mutant: % inh.: without SOS
Summary of the method: as §1

[3] = target: T1, Rho-A (Homo sapiens, UniProt P61586); test: as above; settings: read-out: Rho-A: % inh..
T1 construct: made in house
T1 sequence (P61586 whole entry): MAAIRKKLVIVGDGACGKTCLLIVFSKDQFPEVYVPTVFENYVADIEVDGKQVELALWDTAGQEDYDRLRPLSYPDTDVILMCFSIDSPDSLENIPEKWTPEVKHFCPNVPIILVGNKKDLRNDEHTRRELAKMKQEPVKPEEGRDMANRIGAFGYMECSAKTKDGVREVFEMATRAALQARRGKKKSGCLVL
Summary of the method: as §1

[4] = system: MiaPaca-2 (expressing KRAS G12C mutant); test: Proliferation Assay (Cell Viability Assay); format: cell-based; settings: Homo sapiens, MIA PaCa-2; read-out: Proliferation in MiaPaca-2: IC50
Summary of the method: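 After 2–4 days' exposure at 37 °C, 5% CO2 to a single 10 μM final concentration or a dilution series (IC50), percent proliferation inhibition was derived from CellTiter 96 Aqueous One viability readings. The medium contained 0.3% DMSO and 10% FBS. KRAS G12C MiaPaca-2 cells were plated at 2000–5000/well the day before.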

Row | Structure (SMILES) | KRas wild type + SOS: % inh. [1] | KRas wild type: % inh. [1] | KRas G12D mutant + SOS: % inh. [2] | KRas G12D mutant: % inh. [2] | inhibition at 20 µM [3] [%] | IC50 [4] [nM]
1 | COC1CCCN(c2nc(-c3ccccn3)nn3cc(-c4ccn(C(C)C)n4)c(-c4ccccc4)c23)C1 (racemic) [Compound 27, rac 6-(1-Isopropyl-1H-pyrazol-3-yl)-4-(3-methoxypiperidin-1-yl)-5-phenyl-2-(pyridin-2-yl)pyrrolo[2,1-f][1,2,4]triazine] | A (A = 1-25% inhibition) | A (A = 1-25% inhibition) | 0 (0 = 0% inhibition) | 0 (0 = 0% inhibition) | 1 to 25 | > 1000
2 | Cc1c(-c2ccn(C(C)C)n2)cn2nc(-c3nccn3C)nc(Nc3nc(C4CC4)no3)c12 [Compound 70, 3-Cyclopropyl-N-(6-(1-isopropyl-1H-pyrazol-3-yl)-5-methyl-2-(1-methyl-1H-imidazol-2-yl)pyrrolo[2,1-f][1,2,4]triazin-4-yl)-1,2,4-oxadiazol-5-amine] | 0 (0 = 0% inhibition) | A (A = 1-25% inhibition) | A (A = 1-25% inhibition) | A (A = 1-25% inhibition) | 1 to 25 | > 1000
3 | CO[C@H]1CC[C@@H](Nc2nc(-c3nccn3C)nn3cc(-c4ccn(C(C)C)n4)c(C(C)C)c23)C1 (racemic) [Compound 36, rac 5-Isopropyl-6-(1-isopropyl-1H-pyrazol-3-yl)-N-((1R,3S)-3-methoxycyclopentyl)-2-(1-methyl-1H-imidazol-2-yl)pyrrolo[2,1-f][1,2,4]triazin-4-amine] | A (A = 1-25% inhibition) | 0 (0 = 0% inhibition) | A (A = 1-25% inhibition) | A (A = 1-25% inhibition) | 1 to 25 | > 1000
4 | Cc1c(-c2ccn(C(C)C)n2)cn2nc(-c3nccn3C)nc(Nc3nnco3)c12 [Compound 59, N-(6-(1-Isopropyl-1H-pyrazol-3-yl)-5-methyl-2-(1-methyl-1H-imidazol-2-yl)pyrrolo[2,1-f][1,2,4]triazin-4-yl)-1,3,4-oxadiazol-2-amine] | C (C = 50-75% inhibition) | C (C = 50-75% inhibition) | C (C = 50-75% inhibition) | D (D = 76-100% inhibition) | 76 to 100 | 150 to 500
5 | COc1cccc(-c2cn3nc(-c4nccn4C)nc(N[C@@H]4CC[C@@H](OC)C4)c3c2-c2ccccc2)c1F (racemic) [Compound 43, rac 6-(2-Fluoro-3-methoxyphenyl)-N-((1R,3R)-3-methoxycyclopentyl)-2-(1-methyl-1H-imidazol-2-yl)-5-phenylpyrrolo[2,1-f][1,2,4]triazin-4-amine] | 0 (0 = 0% inhibition) | 0 (0 = 0% inhibition) | 0 (0 = 0% inhibition) | A (A = 1-25% inhibition) | 1 to 25 | > 1000
6 | COc1cccc(-c2cn3nc(-c4nccn4C)nc(N[C@@H]4CC[C@@H](OC)C4)c3c2-c2ccccn2)c1F (racemic) [Compound 46, rac 6-(2-Fluoro-3-methoxyphenyl)-N-((1R,3R)-3-methoxycyclopentyl)-2-(1-methyl-1H-imidazol-2-yl)-5-(pyridin-2-yl)pyrrolo[2,1-f][1,2,4]triazin-4-amine] | A (A = 1-25% inhibition) | A (A = 1-25% inhibition) | A (A = 1-25% inhibition) | B (B = 26-49% inhibition) | 26 to 49 | > 1000

Second part, the compound after the results:

Row | KRas wild type + SOS: % inh. [1] | KRas wild type: % inh. [1] | KRas G12D mutant + SOS: % inh. [2] | KRas G12D mutant: % inh. [2] | inhibition at 20 µM [3] [%] | IC50 [4] [nM] | Structure (SMILES)
7 | D (D = 76-100% inhibition) | D (D = 76-100% inhibition) | D (D = 76-100% inhibition) | D (D = 76-100% inhibition) | 76 to 100 | < 150 | Cc1c(-c2ccn(C(C)C)n2)cn2nc(-c3nccn3C)nc(Nc3ccccn3)c12 [Compound 57, 6-(1-Isopropyl-1H-pyrazol-3-yl)-5-methyl-2-(1-methyl-1H-imidazol-2-yl)-N-(pyridin-2-yl)pyrrolo[2,1-f][1,2,4]triazin-4-amine]
8 | D (D = 76-100% inhibition) | D (D = 76-100% inhibition) | D (D = 76-100% inhibition) | D (D = 76-100% inhibition) | 76 to 100 | < 150 | COc1cc(Nc2nc(-c3nccn3C)nn3cc(-c4ccn(C)n4)c(C)c23)ncn1 [Compound 63, N-(6-Methoxypyrimidin-4-yl)-5-methyl-2-(1-methyl-1H-imidazol-2-yl)-6-(1-methyl-1H-pyrazol-3-yl)pyrrolo[2,1-f][1,2,4]triazin-4-amine]
9 | 0 (0 = 0% inhibition) | 0 (0 = 0% inhibition) | 0 (0 = 0% inhibition) | 0 (0 = 0% inhibition) | 1 to 25 | > 1000 | COc1cccc(Nc2nc(-c3nccn3C)nn3ccc(C)c23)n1 [Compound 38, N-(6-Methoxypyridin-2-yl)-5-methyl-2-(1-methyl-1H-imidazol-2-yl)pyrrolo[2,1-f][1,2,4]triazin-4-amine]
10 | 0 (0 = 0% inhibition) | B (B = 26-49% inhibition) | B (B = 26-49% inhibition) | C (C = 50-75% inhibition) | 26 to 49 | < 150 | COc1cc(Nc2nc(-c3nccn3C)nn3cc(-c4ccncc4)c(C)c23)ncn1 [Compound 49, N-(6-Methoxypyrimidin-4-yl)-5-methyl-2-(1-methyl-1H-imidazol-2-yl)-6-(pyridin-4-yl)pyrrolo[2,1-f][1,2,4]triazin-4-amine]
11 | C (C = 50-75% inhibition) | C (C = 50-75% inhibition) | C (C = 50-75% inhibition) | D (D = 76-100% inhibition) | 76 to 100 | < 150 | Cc1c(-c2ccn(C(C)C)n2)cn2nc(-c3nccn3C)nc(Nc3ncccn3)c12 [Compound 54, 6-(1-Isopropyl-1H-pyrazol-3-yl)-5-methyl-2-(1-methyl-1H-imidazol-2-yl)-N-(pyrimidin-2-yl)pyrrolo[2,1-f][1,2,4]triazin-4-amine]
12 | A (A = 1-25% inhibition) | A (A = 1-25% inhibition) | A (A = 1-25% inhibition) | A (A = 1-25% inhibition) | 1 to 25 | > 1000 | COCC1CCN(c2nc(-c3ccccn3)nn3cc(-c4ccn(C(C)C)n4)c(-c4ccccc4)c23)C1 (racemic) [Compound 25, rac 6-(1-Isopropyl-1H-pyrazol-3-yl)-4-(3-(methoxymethyl)pyrrolidin-1-yl)-5-phenyl-2-(pyridin-2-yl)pyrrolo[2,1-f][1,2,4]triazine]
13 | B (B = 26-49% inhibition) | C (C = 50-75% inhibition) | C (C = 50-75% inhibition) | C (C = 50-75% inhibition) | 76 to 100 | < 150 | COc1cc(Nc2nc(-c3nccn3C)nn3cc(-c4cccc(OC)n4)c(C)c23)ncn1 [Compound 65, 6-(6-Methoxypyridin-2-yl)-N-(6-methoxypyrimidin-4-yl)-5-methyl-2-(1-methyl-1H-imidazol-2-yl)pyrrolo[2,1-f][1,2,4]triazin-4-amine]
14 | 0 (0 = 0% inhibition) | A (A = 1-25% inhibition) | A (A = 1-25% inhibition) | B (B = 26-49% inhibition) | 26 to 49 | < 150 | Cc1c(-c2ccn(C(C)C)n2)cn2nc(-c3nccn3C)nc(Nc3cnccn3)c12 [Compound 62, 6-(1-Isopropyl-1H-pyrazol-3-yl)-5-methyl-2-(1-methyl-1H-imidazol-2-yl)-N-(pyrazin-2-yl)pyrrolo[2,1-f][1,2,4]triazin-4-amine]
